Source: article PMC6163600, “Antihypertensive Effects of Two Novel Angiotensin I-Converting Enzyme (ACE) Inhibitory Peptides from Gracilariopsis lemaneiformis (Rhodophyta) in Spontaneously Hypertensive Rats (SHRs)” (Marine Drugs, 2018)
Read-outs that look alike come from different tables or passages of the source. Non-standard residues stand in square brackets, D forms with d. Residues, ends and D or L forms follow the SMILES beside them. No end group written: not given here. Met(O) = CS(=O)CC[C@H](N)C(=O)O

Key:
ACE (from rabbit lung) [1] = molecular target: T1, ACE (from rabbit lung) (Oryctolagus cuniculus, UniProt P12822); assay: ACE inhibition activity assay (HHL substrate, hippuric acid by RP-HPLC); format: biochemical; settings: 0.1 U/mL ACE, 5 mM HHL, sodium borate buffer pH 8.3 with 0.3 M NaCl, 37 °C, 60 min; seven peptide concentrations; triplicate, mean ± SD
T1 construct: ACE (from rabbit lung); purchased Sigma-Aldrich Co. (St. Louis, MO, USA); host or cells: rabbit lung tissue
T1 sequence (P12822 34-1310): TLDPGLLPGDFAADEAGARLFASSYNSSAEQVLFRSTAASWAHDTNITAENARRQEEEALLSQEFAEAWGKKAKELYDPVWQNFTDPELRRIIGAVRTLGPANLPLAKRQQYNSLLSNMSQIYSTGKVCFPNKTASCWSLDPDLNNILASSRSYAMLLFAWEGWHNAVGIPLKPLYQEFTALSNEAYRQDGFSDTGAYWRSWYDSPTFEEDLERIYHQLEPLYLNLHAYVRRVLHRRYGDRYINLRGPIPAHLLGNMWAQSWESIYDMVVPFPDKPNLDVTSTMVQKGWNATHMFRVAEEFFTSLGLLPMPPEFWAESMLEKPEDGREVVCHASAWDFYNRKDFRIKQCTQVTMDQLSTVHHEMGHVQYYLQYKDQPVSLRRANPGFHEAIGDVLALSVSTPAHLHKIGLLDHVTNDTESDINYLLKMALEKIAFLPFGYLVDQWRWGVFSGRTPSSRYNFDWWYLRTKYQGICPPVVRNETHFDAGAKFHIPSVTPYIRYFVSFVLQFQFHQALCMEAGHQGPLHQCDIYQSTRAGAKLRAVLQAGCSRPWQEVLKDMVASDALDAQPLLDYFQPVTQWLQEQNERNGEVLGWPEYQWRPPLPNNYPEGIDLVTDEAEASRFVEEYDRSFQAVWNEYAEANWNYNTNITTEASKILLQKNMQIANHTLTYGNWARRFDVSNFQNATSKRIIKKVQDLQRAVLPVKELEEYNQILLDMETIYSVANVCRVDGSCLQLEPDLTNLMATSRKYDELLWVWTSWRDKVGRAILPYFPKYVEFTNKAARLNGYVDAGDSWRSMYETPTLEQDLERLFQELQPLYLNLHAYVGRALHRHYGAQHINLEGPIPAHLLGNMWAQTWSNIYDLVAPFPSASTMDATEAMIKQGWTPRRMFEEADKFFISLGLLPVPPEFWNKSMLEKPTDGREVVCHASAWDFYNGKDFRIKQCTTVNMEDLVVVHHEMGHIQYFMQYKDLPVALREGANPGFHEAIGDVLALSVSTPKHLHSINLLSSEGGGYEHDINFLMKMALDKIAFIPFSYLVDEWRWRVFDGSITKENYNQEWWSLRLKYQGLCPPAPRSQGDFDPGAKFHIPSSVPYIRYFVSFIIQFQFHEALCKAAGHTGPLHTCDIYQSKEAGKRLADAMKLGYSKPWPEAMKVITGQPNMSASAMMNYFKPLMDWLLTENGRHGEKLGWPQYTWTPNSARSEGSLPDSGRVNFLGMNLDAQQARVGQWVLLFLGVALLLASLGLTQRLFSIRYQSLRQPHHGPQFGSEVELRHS
Procedure: (§1) ACE (from rabbit lung), hippuryl-histidyl-leucine (HHL), high-performance liquid chromatography (HPLC)-grade acetonitrile (ACN), trifluoroaceticacid (TFA) and porcine pancreatin (8× USP) were purchased from Sigma-Aldrich Co. (St. Louis, MO, USA). Trypsin (EC […], ≥250. N.F.U/mg solid), pepsin (EC 3.4.23.1, ≥250 U/mg solid), and captopril (>99% purity) were obtained from Solarbio (Beijing, China). All other chemical reagents were of analytical grade.
(§2) ACE inhibition activity was assayed according to Cushman and Cheung, with some modification. ACE was dissolved in sodium borate buffer (pH 8.3, containing 0.3 M sodium chloride) to 0.1 U/mL for the assay. Synthetic peptides were dissolved in distilled water to seven concentration levels. Then, 20 μL of a certain concentration of peptide was mixed with 10 μL ACE solution. The mixture was incubated at 37 °C for 5 min, and then 50 μL of 5 mM HHL (sodium borate buffer pH 8.3, containing 0.3 M sodium chloride) was added to the above mixture to start the reaction. […] The absorbance was detected at 228 nm. […] The activity of ACE inhibition was calculated as followed:ACE inhibitory activity (%) = (Acontrol − Ainhibitor)/Acontrol × 100 where Ainhibitor is the relative area of the hippuric acid (HA) peak obtained from the reaction of ACE and HHL with inhibitor. […]

ACE (from rabbit lung) [2] = molecular target: T1, ACE (from rabbit lung); assay: Stability of peptides against ACE; format: in vitro ADME; settings: 0.1 mg/mL peptide with 0.1 U/mL ACE, 37 °C, 24 h; read-out ACE inhibitory activity; mean ± SD, n = 3
Source text: as §1
The stability of peptides against ACE was assayed according to Salampessy. J and Fujita. H [48, 49]. 30 μL of peptides (0.1 mg/mL) reacted with 30 μL 0.1 U/mL ACE solution at 37 °C for 24 h. The ACE was then inactivated through boiling the solution for 10 min. Then, 20 μL of peptides were used to detect ACE inhibitory activity in the above method.

ACE (from rabbit lung) [3] = molecular target: T1, ACE (from rabbit lung); assay: Determination of inhibitory pattern (Lineweaver-Burk plots); format: biochemical; settings: X-axis intercept of the plot of Lineweaver-Burk slopes against peptide concentration
Procedure: as §1, §2

[4] = Observed water solubility of the peptide; format: physicochemical; settings: when the concentration was lower than 10 mg/mL; solubility gradually decreased above 10 mg/mL
Source text: The properties and stabilities of peptides are prerequisites for the preparation of "functional peptides". According to the information in the Innovagen server, FQIN [M(O)] CILR has poor water solubility. […] The hydrophobicity of FQIN [M(O)] CILR is related to the presence of hydrophobic amino acids, such as Phe, Leu, Ile, and Met. The hydrophobicity of FQIN [M(O)] CILR may facilitate the binding of peptides to the hydrophobic active center of ACE, in turn, produce better inhibitory activity.

[5] = system: spontaneously hypertensive rats (SHRs); assay: Antihypertensive effect on SHRs (tail-cuff SBP and DBP); format: in vivo, rat; settings: positive control, single oral dose 10 mg/kg body weight
Procedure: Spontaneously hypertensive rats (SHRs) (male, 10-week-old, 250–300 g body weight, specific, pathogen-free) were bought from Vital River Laboratory Animal Co., Ltd. (Beijing, China). Animals used in this study were maintained in accordance with the guidelines of the Institutional Research Council’s Guide for the Care and Use of Laboratory Animals. SHRs were housed under 12 h day/night cycle at 22 ± 2 °C and fed with tap water and a standard diet ad libitum. The SHRs were randomly separated into a positive group, control group, and two experiment groups. There were six SHRs in each group. Before the formal start of the test, SHRs had to adapt to measuring the environment in advance. Once the tail systolic blood pressure (SBP) rates were above 180 mmHg, the gavage administration could start.
Normal saline was the solvent to dissolve peptides and control reagent. Captopril (99% purity, Solarbio Technology Co., Ltd., Beijing, China) was the positive group. The same volume of normal saline was the control group. Tail-cuff method was performed for systolic blood pressure (SBP) and diastolic blood pressure (DBP) measurements with a non-invasive CODA device (Kent Scientific Co., Torrington, CT, USA). The blood pressure was measured in 0, 1, 2, 4, 6, 8 h after gavage administration. Measurements were repeated three times at each time point.

ACE = system: ACE; set-up: method as in 6 sources, ref 31 = [31]; doi:10.1007/s00217-017-2886-2; 31. Cao D. Lv X. Xu X. Yu H. Sun X. Xu N. Purification and identification of a novel ACE inhibitory peptide from marine alga Gracilariopsis lemaneiformis protein hydrolysate Eur. Food Res. Technol. 20 ||| ref 32, 33 = [32]; doi:10.1016/j.procbio.2017.08.009; 32. Guo M. Chen X. Wu Y. Zhang L. Huang W. Yuan Y. Fang M. Xie J. Wei D. Angiotensin I-converting enzyme inhibitory peptides from Sipuncula ( Phascolosoma esculenta ): Purification, identification, mo || [33]; doi:10.1080/00021369.1987.10868415; 33. Maruyama S. Mitachi H. Awaya J. Kurono M. Tomizuka N. Suzuki H. Angiotensin I-Converting Enzyme Inhibitory Activity of the C-Terminal Hexapeptide of αs1-Casein Agric. Biol. Chem. Tokyo 1987 51 255 ||| ref 7 = [7]; 7. Fujita H. Yokoyama K. Yoshikawa M. Classification and antihypertensive activity of angiotensin I-converting enzyme inhibitory peptides derived from food proteins J. Food Sci. 2000 65 564 569 ||| ref 43 = [43]; PMID 24866326; doi:10.1021/jf501368a; 43. Duan X. Wu F. Li M. Yang N. Wu C. Jin Y. Yang J. Jin Z. Xu X. Naturally occurring angiotensin I-Converting enzyme inhibitory peptide from a fertilized egg and its inhibitory mechanism J. Agric. Fo ||| ref 44 = [44]; doi:10.1016/j.foodres.2012.11.002; 44. Liu X. Zhang M. Jia A. Zhang Y. Zhu H. Zhang C. Sun Z. Liu C. Purification and characterization of angiotensin I converting enzyme inhibitory peptides from jellyfish Rhopilema esculentum Food Res. ||| ...; settings: cited from earlier work; for Inhibition pattern on ACE: peptides isolated from food stuffs, ref 37 (IFL), 38 (AVKVL), 39 (VELWP)
[6] = cited from earlier work
Source text: Antihypertensive activity of peptides were further evaluated using spontaneously hypertensive rats (SHRs). […] Overall, drugs can exert better antihypertensive effects than hydrolysates and antihypertensive peptides derived from foods. […] Both FQIN [M(O)] CILR and TGAPCR decreased the SBP of SHRs. FQIN [M(O)] CILR and TGAPCR reduced the SBP of SHRs by 34 mmHg and 28 mmHg to the maximum extent, re ...

[7] = peptide isolated from dried bonito, before pre-incubation with ACE, read-out: IC50 (ACE inhibition)
[8] = peptides isolated from jellyfish, read-out: IC50 (ACE inhibition)
[9] = reported C-terminal arginine ACE inhibitory peptides, read-out: IC50 (ACE inhibition)

In the case of `CC[C@H](C)[C@H](NC(=O)[C@H](CS)NC(=O)[C@H](CC[S+](C)[O-])NC(=O)[C@H](CC(N)=O)NC(=O)[C@@H](NC(=O)[C@H](CCC(N)=O)NC(=O)[C@@H](N)Cc1ccccc1)[C@@H](C)CC)C(=O)N[C@@H](CC(C)C)C(=O)N[C@@H](CCCNC(=N)N)C(=O)O` (stereo partly drawn) [FQIN [M(O)] CILR] (H-FQIN[Met(O)]CILR-OH), the IC50 (ACE (from rabbit lung) [1]) is reported as 9.64 ± 0.36 µM, the “Stability against ACE hydrolysis (ACE inhibitory activity after incubation with ACE)” value (ACE (from rabbit lung) [2]) is reported as “stable ACE inhibitors but not substrates of ACE” and the Ki (ACE (from rabbit lung) [3]) is reported as 710 ± 40 µM. The “water solubility found in the authors' study” value [4] was “good water solubility”.
For `C[C@H](CS)C(=O)N1CCC[C@H]1C(=O)O` [captopril], the “Antihypertensive effect on SHRs (in words)” value [5] was “maximal antihypertensive effect”.
For AVKVL, the “Inhibition pattern on ACE” value (ACE) is given as “noncompetitive inhibition”.
In the case of FFGRCVSP, the IC50 (ACE; [7]) is given as 0.4 µM and the IC50 (ACE; peptide isolated from dried bonito, hydrolyzed by ACE to fragments, read-out: IC50 after hydrolysis by ACE) is given as 4.6 µM.
In the case of GDIGY, the “Reduction of SBP” value [6] is given as 20.67 mmHg and the IC50 (ACE; [8]) is given as 32.6 µM.
In the case of GNGSGYVSR, the IC50 (ACE; [9]) is listed as 29 µM.
For HLFGPPGKKDPV, the “Greatest SBP drop” value ([6]; oral dose of 10 mg/kg) is given as 30 mmHg and the IC50 (ACE; peptide separated from fertilized eggs, read-out: IC50 (ACE inhibition)) is given as 125 µM.
For LKPNM, the “IC50 after the pre-incubation with ACE, as fraction of the IC50 before” value (ACE; hydrolyzed into LKP and NM) is listed as 1/3 and the IC50 (ACE; [7]) is listed as 2.4 µM.
In the case of QPGPT, the “Reduction of SBP” value [6] is given as 13.75 mmHg and the IC50 (ACE; [8]) is given as 80.7 µM.
In the case of QVEY, the IC50 (ACE; peptide from trypsin hydrolyzate of G. lemaneiformis, read-out: IC50 (ACE inhibition)) is listed as 474 µM.
In the case of TGAPCR [TGAPCR], the IC50 (ACE (from rabbit lung) [1]) is reported as 23.9 ± 0.82 µM, the “Stability against ACE hydrolysis (ACE inhibitory activity after incubation with ACE)” value (ACE (from rabbit lung) [2]) is reported as “stable ACE inhibitors but not substrates of ACE” and the Ki (ACE (from rabbit lung) [3]) is reported as 860 ± 60 µM.
In the case of VELWP, the “Inhibition pattern on ACE” value (ACE) is listed as “noncompetitive inhibition”.
For YASGR, the IC50 (ACE; [9]) is listed as 184 µM.
In the case of YIPIQYVLSR, the IC50 (ACE; [9]) is given as 132 µM.
